Values of other authors in patent publication US20110217294A1, “COMBINATION OF HGF INHIBITOR AND HEDGEHOG INHIBITOR TO TREAT CANCER” (priority 2009, published 2011).

Assays:
[1] = molecular target: heparin sulfate proteoglycans (HSPG); conditions: low affinity binding site
cMet receptor = cMet receptor (Homo sapiens, UniProt P08581); conditions: high affinity binding site
cMet receptor, sequence (P08581 25-1390): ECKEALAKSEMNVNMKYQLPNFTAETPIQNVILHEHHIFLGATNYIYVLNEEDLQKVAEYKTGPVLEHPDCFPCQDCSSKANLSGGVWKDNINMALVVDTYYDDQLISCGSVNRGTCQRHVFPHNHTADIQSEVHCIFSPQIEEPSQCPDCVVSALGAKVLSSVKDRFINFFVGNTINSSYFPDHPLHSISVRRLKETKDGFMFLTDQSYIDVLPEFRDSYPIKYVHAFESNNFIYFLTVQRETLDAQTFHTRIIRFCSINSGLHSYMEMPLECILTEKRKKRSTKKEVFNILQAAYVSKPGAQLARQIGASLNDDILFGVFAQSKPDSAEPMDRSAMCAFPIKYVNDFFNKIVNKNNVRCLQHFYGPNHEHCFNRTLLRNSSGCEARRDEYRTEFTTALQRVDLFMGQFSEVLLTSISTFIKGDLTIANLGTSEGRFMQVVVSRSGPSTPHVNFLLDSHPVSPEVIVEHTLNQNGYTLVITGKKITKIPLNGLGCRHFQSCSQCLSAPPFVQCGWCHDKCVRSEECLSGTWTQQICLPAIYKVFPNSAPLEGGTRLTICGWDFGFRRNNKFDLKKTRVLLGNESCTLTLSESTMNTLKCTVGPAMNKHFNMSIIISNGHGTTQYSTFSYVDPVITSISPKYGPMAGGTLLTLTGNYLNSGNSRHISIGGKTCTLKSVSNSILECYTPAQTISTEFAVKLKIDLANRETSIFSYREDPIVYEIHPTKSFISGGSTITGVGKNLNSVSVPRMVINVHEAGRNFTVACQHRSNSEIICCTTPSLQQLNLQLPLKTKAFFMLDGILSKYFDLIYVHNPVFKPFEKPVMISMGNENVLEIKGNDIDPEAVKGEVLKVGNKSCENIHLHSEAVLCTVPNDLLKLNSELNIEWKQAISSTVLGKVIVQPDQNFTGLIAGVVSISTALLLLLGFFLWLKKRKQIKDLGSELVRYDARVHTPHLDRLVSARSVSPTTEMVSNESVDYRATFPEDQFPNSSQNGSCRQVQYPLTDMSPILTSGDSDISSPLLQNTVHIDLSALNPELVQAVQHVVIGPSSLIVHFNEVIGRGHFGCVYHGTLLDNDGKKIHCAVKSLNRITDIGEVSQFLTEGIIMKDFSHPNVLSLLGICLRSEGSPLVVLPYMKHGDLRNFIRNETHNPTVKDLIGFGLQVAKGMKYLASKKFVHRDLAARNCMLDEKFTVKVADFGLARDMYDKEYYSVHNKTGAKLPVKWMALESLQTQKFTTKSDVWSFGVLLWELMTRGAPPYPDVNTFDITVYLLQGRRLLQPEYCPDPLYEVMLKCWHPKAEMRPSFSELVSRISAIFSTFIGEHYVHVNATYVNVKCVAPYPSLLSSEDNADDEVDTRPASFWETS

Kd [1]: 1 nM
Kd (cMet receptor): 0.2 nM
Substance: HGF: Human Hepatocyte Growth Factor, 102 kDa heterodimeric polypeptide
